From patent US20230365592A1 (Agios Pharmaceuticals, Inc., priority 2022, published 2023)

target: T1, human PAH with the R408W mutation (Homo sapiens, UniProt P00439, R408W); assay: Cell Based Phenylalanine Flux Assay; conditions: A375 cells expressing human R408W PAH; 24 hrs compound incubation; 13C-Tyrosine by LC-MS; average where tested multiple times; read-out: AC50;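 further: after compound treatment, cells received sepiapterin plus isotope-labelled Phenylalanine for 4 hours, then labelled Tyrosine in the medium was quantified, 10-point 2-fold dilution series run in duplicate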
T1 construct: expressed in transfected cells
T1 sequence (P00439 1-452 R408W): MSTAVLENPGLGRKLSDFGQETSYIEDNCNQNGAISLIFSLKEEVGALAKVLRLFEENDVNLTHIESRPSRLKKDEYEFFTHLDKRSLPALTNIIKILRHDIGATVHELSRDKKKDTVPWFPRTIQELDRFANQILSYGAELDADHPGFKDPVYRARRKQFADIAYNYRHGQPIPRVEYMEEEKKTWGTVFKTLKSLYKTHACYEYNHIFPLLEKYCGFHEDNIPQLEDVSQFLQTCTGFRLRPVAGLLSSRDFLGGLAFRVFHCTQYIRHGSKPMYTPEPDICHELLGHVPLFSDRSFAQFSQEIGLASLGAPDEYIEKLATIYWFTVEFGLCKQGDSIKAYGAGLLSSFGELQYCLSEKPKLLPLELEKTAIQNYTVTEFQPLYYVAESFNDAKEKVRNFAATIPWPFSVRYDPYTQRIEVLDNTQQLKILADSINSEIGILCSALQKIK

Row | AC50 [nM] | SMILES
1 | > 5000 | Cc1ccc(-c2nnc(C(=O)N3CCc4[nH]cnc4[C@@H]3c3cc4c(F)cccn4n3)o2)nc1 [Example 876, (R)-(4-(4-fluoropyrazolo[1,5-a]pyridin-2-yl)-6,7-dihydro-1H-imidazo[4,5-c]pyridin-5(4H)-yl)(5-(5-methylpyridin-2-yl)-1,3,4-oxadiazol-2-yl)methanone]
2 | < 500 | Cc1ccc(-c2nnc(C(=O)N3CCc4[nH]cnc4[C@H]3c3cc4c(F)cccn4n3)o2)nc1 [Example 877, (S)-(4-(4-fluoropyrazolo[1,5-a]pyridin-2-yl)-6,7-dihydro-1H-imidazo[4,5-c]pyridin-5(4H)-yl)(5-(5-methylpyridin-2-yl)-1,3,4-oxadiazol-2-yl)methanone]
3 | > 5000 | O=C(c1nnc(-c2ccc(C(F)(F)F)cn2)o1)N1CCc2[nH]cnc2[C@@H]1c1cc2c(F)cccn2n1 [Example 878, (R)-(4-(4-fluoropyrazolo[1,5-a]pyridin-2-yl)-6,7-dihydro-1H-imidazo[4,5-c]pyridin-5(4H)-yl)(5-(5-(trifluoromethyl)pyridin-2-yl)-1,3,4-oxadiazol-2-yl)methanone]
4 | < 500 | O=C(c1nnc(-c2ccc(C(F)(F)F)cn2)o1)N1CCc2[nH]cnc2[C@H]1c1cc2c(F)cccn2n1 [Example 879, (S)-(4-(4-fluoropyrazolo[1,5-a]pyridin-2-yl)-6,7-dihydro-1H-imidazo[4,5-c]pyridin-5(4H)-yl)(5-(5-(trifluoromethyl)pyridin-2-yl)-1,3,4-oxadiazol-2-yl)methanone]

Continued, compound first:

Row | SMILES | AC50 [nM]
5 | Cn1cncc1-c1nc(C(F)F)c(C(=O)N2CCc3[nH]cnc3[C@@H]2c2cc3ccccn3n2)o1 [Example 868, (R)-(4-(difluoromethyl)-2-(1-methyl-1H-imidazol-5-yl)oxazol-5-yl)(4-(pyrazolo[1,5-a]pyridin-2-yl)-6,7-dihydro-1H-imidazo[4,5-c]pyridin-5(4H)-yl)methanone] | > 5000
6 | Cn1cncc1-c1nc(C(F)F)c(C(=O)N2CCc3[nH]cnc3[C@H]2c2cc3ccccn3n2)o1 [Example 869, (S)-(4-(difluoromethyl)-2-(1-methyl-1H-imidazol-5-yl)oxazol-5-yl)(4-(pyrazolo[1,5-a]pyridin-2-yl)-6,7-dihydro-1H-imidazo[4,5-c]pyridin-5(4H)-yl)methanone] | 500 to 1000
7 | Cc1ccc(-c2nnc(C(=O)N3CCc4[nH]cnc4[C@@H]3c3cc4c(C)cccn4n3)o2)nc1 [Example 870, (R)-(4-(4-methylpyrazolo[1,5-a]pyridin-2-yl)-6,7-dihydro-1H-imidazo[4,5-c]pyridin-5(4H)-yl)(5-(5-methylpyridin-2-yl)-1,3,4-oxadiazol-2-yl)methanone] | > 5000
8 | Cc1ccc(-c2nnc(C(=O)N3CCc4[nH]cnc4[C@H]3c3cc4c(C)cccn4n3)o2)nc1 [Example 871, (S)-(4-(4-methylpyrazolo[1,5-a]pyridin-2-yl)-6,7-dihydro-1H-imidazo[4,5-c]pyridin-5(4H)-yl)(5-(5-methylpyridin-2-yl)-1,3,4-oxadiazol-2-yl)methanone] | < 500
9 | Cc1cccn2nc([C@H]3c4nc[nH]c4CCN3C(=O)c3nnc(-c4ccc(C(F)(F)F)cn4)o3)cc12 [Example 872, (R)-(4-(4-methylpyrazolo[1,5-a]pyridin-2-yl)-6,7-dihydro-1H-imidazo[4,5-c]pyridin-5(4H)-yl)(5-(5-(trifluoromethyl)pyridin-2-yl)-1,3,4-oxadiazol-2-yl)methanone] | > 5000
10 | Cc1cccn2nc([C@@H]3c4nc[nH]c4CCN3C(=O)c3nnc(-c4ccc(C(F)(F)F)cn4)o3)cc12 [Example 873, (S)-(4-(4-methylpyrazolo[1,5-a]pyridin-2-yl)-6,7-dihydro-1H-imidazo[4,5-c]pyridin-5(4H)-yl)(5-(5-(trifluoromethyl)pyridin-2-yl)-1,3,4-oxadiazol-2-yl)methanone] | 500 to 1000
11 | Cc1cccn2nc([C@@H]3c4nc[nH]c4CCN3C(=O)c3nnc(-c4ccc(F)cn4)o3)cc12 [Example 875, (S)-(5-(5-fluoropyridin-2-yl)-1,3,4-oxadiazol-2-yl)(4-(4-methylpyrazolo[1,5-a]pyridin-2-yl)-6,7-dihydro-1H-imidazo[4,5-c]pyridin-5(4H)-yl)methanone] | < 500
